According to patent EP3338775B1, “USE OF BUTYLIDENEPHTHALIDE” (Everfront Biotech Inc., priority 2015, dated 2017):
Several values for one entry are separate records, joined by “and”; a condition that tells them apart may be missing. Equal entries are not always repeated.

What was measured:
Format in all cases: cell-based
[1] = test system: CD133, Sox-2 and Oct4 proteins; experiment: Western blotting of stemness-maintenance markers in brain CSCs CD133+; conditions: BP 0, 12.5, 25, 50, 62.5 and 75 µg/ml for 24 hours; Figures 4 and 5
Protocol: It has been known that CD44, CD133, Sox-2 (sex-determining region Y protein (SRY)-related high-mobility group box 2) and Oct4 (octamerbinding transcription factor 4) proteins all are stemness-maintenance markers of cancer stem cells and participate in the regulation of the self-renewal and differentiation of cancer stem cells. Brain CSCs ^CD133+ was treated with different concentrations (0, 12.5, 25, 50, 62.5 and 75 µg/ml) of BP for 24 hours, and then, proteins were extracted from the cells to conduct Western blotting to determine the expressions of CD133, Sox-2 and Oct4 proteins in the BP-treated brain CSCs ^CD133+. In addition, MiaPaCa-2 cell line (i.e., a cell line of pancreatic cancer cells) was treated with different concentrations (0, 12.5, 25, and 50 µg/ml) of BP for 24 hours, and then, proteins were extracted from the cells to conduct Western blotting to determine the expressions of Sox-2, CD133 and CD44 proteins in the BP-treated MiaPaCa-2 cells. […]

[2] = test system: pcDNA3.0-neo brain CSCs ^CD133+; experiment: Wound healing assay with pcDNA3.0-neo brain CSCs CD133+; conditions: without Axl overexpression; BP 0, 25, 50, 62.5, 75 and 100 µg/ml for 24 hours; Figure 14C
Protocol: In this research, to further investigate whether the capability of BP in inhibiting the metastasis of cancer stem cells is related to Axl, brain CSCs ^CD133+ was transfected with pcDNA3.0-Axl plasmid and pcDNA3.0-neo plasmid respectively by using Lipofectmine 2000 transfection reagent. Then, the transfected brain CSCs ^CD133+ and un-transfected brain CSCs ^CD133+ were selected by 200 to 600 µg/ml G418 at the same time to obtain brain CSCs ^CD133+ having pcDNA3.0-Axl plasmid (hereinafter referred to as "pcDNA 3.0-Axl brain CSCs ^CD133+") or brain CSCs ^CD133+ having pcDNA3.0-neo plasmid (hereinafter referred to as "pcDNA3.0-neo brain CSCs ^CD133+"). Both pcDNA 3.0-Axl brain CSCs ^CD133+ and pcDNA3.0-neo brain CSCs ^CD133+ were observed and photographed with the use of a microscope. Then, proteins were extracted from both cells to conduct Western blotting to determine the expressions of Axl protein and β-actin in the BP-treated brain CSCs ^CD133+. Yet another, pcDNA 3.0-Axl brain CSCs ^CD133+ and pcDNA3.0-neo brain CSCs ^CD133+ were treated with different concentrations (0, 25, 50, 62.5, 75 and 100 µg/ml) of BP for 24 hours. At the same time, the phenomenon of pcDNA 3.0-Axl brain CSCs ^CD133+ and pcDNA3.0-neo brain CSCs ^CD133+ migrate to the wound was observed and photographed at 0 and 24 hours during the BP treatment.

[3] = test system: NHOKs (normal human oral keratinocytes); experiment: MTT viability assay on normal human oral keratinocytes; conditions: BP 0, 25, 50 and 100 µg/ml for 24 hours; Figure 2
Protocol: (§1) NHOKs (normal human oral keratinocytes) and HNC-TIC (head and neck cancer-derived tumor initiating cell)-like oral stem cells (i.e., ALDH1^+CD44^+-1 cell line or ALDH1^+CD44^+-2 cell line) were treated with different concentrations (0, 25, 50 and 100 µg/ml) of BP for 24 hours, and then, an MTT assay was utilized to analyzed the viabilities of NHOKs and HNC-TIC-like oral stem cells (i.e., ALDH1^+CD44^+-1 cell line and ALDH1^+CD44^+-2 cell line).

[4] = test system: Sox-2 and Oct4 proteins; experiment: Western blotting of stemness-maintenance markers in HNC-TIC-like oral stem cells; conditions: BP 0, 12.5, 25 and 50 µg/ml for 24 hours; both cell lines; Figure 7
[5] = test system: HNC-TIC-like oral stem cells (ALDH1^+CD44^+-1 cell line, ALDH1^+CD44^+-2 cell line); experiment: MTT viability assay on HNC-TIC-like oral stem cells; conditions: BP 0, 25, 50 and 100 µg/ml for 24 hours; both cell lines; Figure 2
Protocol: as §1

[6] = test system: malignant glioma DBTRG cells; experiment: MTT cell viability assay on malignant glioma DBTRG cells; conditions: 24-hour group
Protocol: Thereafter, a cell viability assay, MTT assay, was utilized to analyze the viabilities of brain CSCs ^CD133+ and malignant glioma DBTRG cells. […] The results are shown in Figure 1A and Figure 1B for 24-hour group and 48-hour group (i.e., the treatment for 24 hours and 48 hours) and in Table 1 for 24-hour group.

[7] = test system: E-cadherin, TGFβ-1 and Slug; experiment: Western blotting of EMT-related proteins in brain CSCs CD133+; conditions: BP 0, 12.5, 25, 50, 62.5 and 75 µg/ml for 24 hours, Figure 12
Protocol: In has been known that at the start of the epithelial-mesenchymal transition (EMT) of cancer stem cells, the expression of E-cadherin would reduce and the aggregation force between cancer stem cells would decrease, so that the cancer stem cells would gain great invasion and migration capacity and depart from the primary tumor, and thus, could metastasize. Brain CSCs ^CD133+ was treated with different concentrations (0, 12.5, 25, 50, 62.5 and 75 µg/ml) of BP for 24 hours, and then, proteins were extracted from the cells to conduct Western blotting to determine the expressions of E-cadherin, TGFβ-1 (with an ability to induce EMT) and Slug (i.e., a member of Snail family transcriptional repressors with a property of promoting the metastasis of cancer cells) proteins in the BP-treated brain CSCs ^CD133+.

In the case of `CCCC=C1OC(=O)c2ccccc21` [BP, butylidenephthalide], the “expressions of CD133, Sox-2 and Oct4 proteins in brain CSCs ^CD133+” value [1] is reported as “significantly decreased”, the “number of pcDNA3.0-neo brain CSCs ^CD133+ migrated to the wound” value [2] is reported as “significantly decreased” and the “viability of NHOKs” value [3] is reported as “did not decrease”. For the same compound, the “expressions of Sox-2 and Oct4 proteins in the HNC-TIC-like oral stem cells” value [4] was “significantly decreased”, the “viability of HNC-TIC-like oral stem cells” value [5] was “decreased along with the increment in the concentration of BP” and the IC50 [6] was 400 µM and 75.3 µg/mL. The “expression of E-cadherin protein” value [7] was “significantly increased” and the “expressions of TGFβ-1 and Slug proteins” value [7] was “significantly decreased”.
